{"source": "patent US10807995B2", "about": "“Thienothiophene compounds for long-acting injectable compositions and related methods” (priority 2018, dated 2020)", "key": {"[1]": {"assay": "Whole blood stability assay", "assay_type": "in vitro ADME", "settings": "prodrug 50 nM in fresh pooled human whole blood, 37 degrees C.; read-out: t1/2 at 37 degrees C. in human whole blood", "procedure": "Naltrexone prodrug stability was assessed using freshly collected whole blood (within 24-hr collection) from pooled human (n=3) donors. The incubation mixtures were prepared by spiking the prodrugs into pre-warmed (37 degrees C.) fresh whole blood to a final concentration of 50 nM. After gentle mixing, aliquots of incubation mixtures were immediately transferred into four different 96-deep well plates. One plate was used for each time point. The plates were incubated at 37 degrees C. at a shaking speed of 100 rpm. At time points 15, 30, 60 and 120 minutes, the reaction was quenched by addition of a mixture of water and acetonitrile containing the internal standard (naltrexone-D3). Time point 0 minutes was prepared separately by spiking the prodrugs into a quenched whole blood to obtain a final concentration of 50 nM. All samples were vortexed at a low speed for 15 min and centrifuged at 3900 rpm for 15 min. Supernatants were transferred into 96-well plates for LC-MS/MS analysis to monitor the depletion of the prodrugs and the formation of naltrexone.\nThe amount of remaining prodrug and released naltrexone for each sample was quantitated against the calibration curves prepared with the whole blood. The human whole blood was purchased from BioreclamationIVT (Westbury, N.Y., USA). Naltrexone-D3 was purchased from Cerilliant® (Round Rock, Tex., USA). […] Where multiple runs have been completed, average values are reported."}, "[2]": {"assay": "Pharmacokinetic evaluation of the release of naltrexone from Compound 3 in rats following a single intramuscular injection", "assay_type": "in vivo, Sprague-Dawley rats", "settings": "for Compound 3 conc.: plasma of individual rats (Rat 1-6)", "procedure": "Six male Sprague-Dawley rats were allowed to acclimate to the test facility for at least 3 days prior to study start. For dose administration of Compound 3, the rats were lightly anesthetized with isofluorane, the hind leg shaved and dosed intramuscularly with the formulation using a 20 G needle. […] Serial whole blood samples were collected via sublingual route (˜150 μL) at 1, 8, and 24 hours post dose, and at 2, 4, 7, 10, 15, 22, 24, 28, 35, 42, 49, 56 and 63 days post dose.\nBlood samples were placed into K2EDTA blood collection tubes. After collection, blood samples were maintained chilled (on wet ice) and centrifuged (11,500 rpm for 2 minutes at 5 degrees C.) within 30 minutes to obtain plasma. Plasma was transferred into a single vial, 1.5 mL screw cap micro-centrifuge tube with inserts and stored at −80 degrees C. until analysis.\nThe formulation dosed was a crystalline suspension of Compound 3 (44.4 milligrams of Compound 3 dosed per animal), wherein the crystalline test article was characterized with a particle size distribution of Dv10=1.6 μm, Dv50=4.1 μm, and Dv90=7.7 μm (as measured via laser diffraction). The formulation was prepared the day before dosing. Details of the formulation dosed are described in Table D below.\nResults of the above intramuscular rat study of Compound 3 are shown in Tables E and F. In particular, Table E reports the average blood plasma levels of naltrexone in rat (n=6) over 63 days following intramuscular administration."}, "[3]": {"settings": "rat plasma over 63 days after single IM Compound 3"}}, "note": "Where “and” joins values, the source holds several entries; their conditions need not be identical. Identical values can stand only once.", "data": [{"smiles": "O=C(Cc1csc2scc(CC(=O)Oc3ccc4c5c3O[C@H]3C(=O)CC[C@@]6(O)[C@@H](C4)N(CC4CC4)CC[C@]536)c12)Oc1ccc2c3c1O[C@H]1C(=O)CC[C@@]4(O)[C@@H](C2)N(CC2CC2)CC[C@]314", "note": "[Compound 2, bis((4R,4aS,7aR,12bS)-3-(cyclopropylmethyl)-4a-hydroxy-7-oxo-2,3,4,4a,5,6,7,7a-octahydro-1H-4,12-methanobenzofuro[3,2-e]isoquinolin-9-yl) 2,2′-(thieno[2,3-b]thiophene-3,4-diyl)diacetate]", "values": [{"measurement": "half-life at 50 nM", "setting": "[1]", "result": 15.7, "unit": "min"}]}, {"smiles": "Cc1c(CC(=O)Oc2ccc3c4c2O[C@H]2C(=O)CC[C@@]5(O)[C@@H](C3)N(CC3CC3)CC[C@]425)sc2c(C)c(CC(=O)Oc3ccc4c5c3O[C@H]3C(=O)CC[C@@]6(O)[C@@H](C4)N(CC4CC4)CC[C@]536)sc12", "note": "[Compound 4, bis((4R,4aS,7aR,12bS)-3-(cyclopropylmethyl)-4a-hydroxy-7-oxo-2,3,4,4a,5,6,7,7a-octahydro-1H-4,12-methanobenzofuro[3,2-e]isoquinolin-9-yl) 2,2′-(3,6-dimethylthieno[3,2-b]thiophene-2,5-diyl)diacetate]", "values": [{"measurement": "half-life at 50 nM", "setting": "[1]", "result": 20.7, "unit": "min"}]}, {"smiles": "O=C(Cc1cc2sc(CC(=O)Oc3ccc4c5c3O[C@H]3C(=O)CC[C@@]6(O)[C@@H](C4)N(CC4CC4)CC[C@]536)cc2s1)Oc1ccc2c3c1O[C@H]1C(=O)CC[C@@]4(O)[C@@H](C2)N(CC2CC2)CC[C@]314", "note": "[Compound 3, bis((4R,4aS,7aR,12bS)-3-(cyclopropylmethyl)-4a-hydroxy-7-oxo-2,3,4,4a,5,6,7,7a-octahydro-1H-4,12-methanobenzofuro[3,2-e]isoquinolin-9-yl) 2,2′-(thieno[3,2-b]thiophene-2,5-diyl)diacetate]", "values": [{"measurement": "conversion of Compound 3 to naltrexone", "setting": "[2]; in rats over 63 days", "result": "efficient conversion"}, {"measurement": "Compound 3 conc.", "setting": "[2]; single IM Compound 3, day 0.042 (1 hr)", "result": "<0.1", "unit": "ng/mL"}, {"measurement": "Compound 3 conc.", "setting": "[2]; single IM Compound 3, day 0.33 (8 hr)", "result": "<0.1", "unit": "ng/mL"}, {"measurement": "Compound 3 conc.", "setting": "[2]; single IM Compound 3, day 1", "result": "<0.1", "unit": "ng/mL"}, {"measurement": "Compound 3 conc.", "setting": "[2]; single IM Compound 3, day 2", "result": "<0.1", "unit": "ng/mL"}, {"measurement": "Compound 3 conc.", "setting": "[2]; single IM Compound 3, day 4", "result": "<0.1", "unit": "ng/mL"}, {"measurement": "Compound 3 conc.", "setting": "[2]; single IM Compound 3, day 7", "result": "<0.1 ng/mL (5×) and 0.161 ng/mL"}, {"measurement": "Compound 3 conc.", "setting": "[2]; single IM Compound 3, day 10", "result": "<0.1", "unit": "ng/mL"}, {"measurement": "Compound 3 conc.", "setting": "[2]; single IM Compound 3, day 15", "result": "<0.1", "unit": "ng/mL"}, {"measurement": "Compound 3 conc.", "setting": "[2]; single IM Compound 3, day 22", "result": "<0.1", "unit": "ng/mL"}, {"measurement": "Compound 3 conc.", "setting": "[2]; single IM Compound 3, day 24", "result": "<0.1", "unit": "ng/mL"}, {"measurement": "Compound 3 conc.", "setting": "[2]; single IM Compound 3, day 28", "result": "<0.1", "unit": "ng/mL"}, {"measurement": "Compound 3 conc.", "setting": "[2]; single IM Compound 3, day 35", "result": "<0.1", "unit": "ng/mL"}, {"measurement": "Compound 3 conc.", "setting": "[2]; single IM Compound 3, day 42", "result": "<0.1 ng/mL (5×) and 0.128 ng/mL"}, {"measurement": "Compound 3 conc.", "setting": "[2]; single IM Compound 3, day 49", "result": "0.134 ng/mL and 0.131 ng/mL and 0.138 ng/mL and <0.1 ng/mL (2×) and 0.143 ng/mL"}, {"measurement": "Compound 3 conc.", "setting": "[2]; single IM Compound 3, day 56", "result": "2.02 ng/mL and 0.753 ng/mL and 0.501 ng/mL and 0.281 ng/mL and 0.245 ng/mL and 0.237 ng/mL"}, {"measurement": "Compound 3 conc.", "setting": "[2]; single IM Compound 3, day 63", "result": "0.184 ng/mL and 0.229 ng/mL and 0.223 ng/mL and 0.234 ng/mL and 0.255 ng/mL and 0.207 ng/mL"}, {"measurement": "concentrations of parent Compound 3", "setting": "[2]; [3]", "result": "generally low to not measurable"}, {"measurement": "half-life at 50 nM", "setting": "[1]", "result": 6.46, "unit": "min"}]}, {"smiles": "O=C(Cc1cc2cc(CC(=O)Oc3ccc4c5c3O[C@H]3C(=O)CC[C@@]6(O)[C@@H](C4)N(CC4CC4)CC[C@]536)sc2s1)Oc1ccc2c3c1O[C@H]1C(=O)CC[C@@]4(O)[C@@H](C2)N(CC2CC2)CC[C@]314", "note": "[Compound 1, bis((4R,4aS,7aR,12bS)-3-(cyclopropylmethyl)-4a-hydroxy-7-oxo-2,3,4,4a,5,6,7,7a-octahydro-1H-4,12-methanobenzofuro[3,2-e]isoquinolin-9-yl) 2,2′-(thieno[2,3-b]thiophene-2,5-diyl)diacetate]", "values": [{"measurement": "half-life at 50 nM", "setting": "[1]", "result": 11, "unit": "min"}]}, {"smiles": "O=C(CCc1cc2sc(CCC(=O)Oc3ccc4c5c3O[C@H]3C(=O)CC[C@@]6(O)[C@@H](C4)N(CC4CC4)CC[C@]536)cc2s1)Oc1ccc2c3c1O[C@H]1C(=O)CC[C@@]4(O)[C@@H](C2)N(CC2CC2)CC[C@]314", "note": "[Compound 5, bis((4R,4aS,7aR,12bS)-3-(cyclopropylmethyl)-4a-hydroxy-7-oxo-2,3,4,4a,5,6,7,7a-octahydro-1H-4,12-methanobenzofuro[3,2-e]isoquinolin-9-yl) 3,3′-(thieno[3,2-b]thiophene-2,5-diyl)dipropionate]", "values": [{"measurement": "half-life at 50 nM", "setting": "[1]", "result": 17.1, "unit": "min"}]}, {"smiles": "O=C(Oc1ccc2c3c1O[C@H]1C(=O)CC[C@@]4(O)[C@@H](C2)N(CC2CC2)CC[C@]314)c1ccc(C(=O)Oc2ccc3c4c2O[C@H]2C(=O)CC[C@@]5(O)[C@@H](C3)N(CC3CC3)CC[C@]425)cc1", "note": "[Reference Compound A, NTX-3-terephthaloyl-NTX, reference compound]", "values": [{"measurement": "half-life at 50 nM", "setting": "[1]", "result": 54.7, "unit": "min"}]}, {"smiles": "O=C(Cc1csc2c(CC(=O)Oc3ccc4c5c3O[C@H]3C(=O)CC[C@@]6(O)[C@@H](C4)N(CC4CC4)CC[C@]536)csc12)Oc1ccc2c3c1O[C@H]1C(=O)CC[C@@]4(O)[C@@H](C2)N(CC2CC2)CC[C@]314", "note": "[Compound 6, bis((4R,4aS,7aR,12bS)-3-(cyclopropylmethyl)-4a-hydroxy-7-oxo-2,3,4,4a,5,6,7,7a-octahydro-1H-4,12-methanobenzofuro[3,2-e]isoquinolin-9-yl) 2,2′-(thieno[3,2-b]thiophene-3,6-diyl)diacetate]", "values": [{"measurement": "half-life at 50 nM", "setting": "[1]", "result": 11, "unit": "min"}]}, {"smiles": "O=C(O)Cc1cc2sc(CC(=O)Oc3ccc4c5c3O[C@H]3C(=O)CC[C@@]6(O)[C@@H](C4)N(CC4CC4)CC[C@]536)cc2s1", "note": "[Compound 3i, 2-(5-(2-(((4R,4aS,7aR,12bS)-3-(cyclopropylmethyl)-4a-hydroxy-7-oxo-2,3,4,4a,5,6,7,7a-octahydro-1H-4,12-methanobenzofuro[3,2-e]isoquinolin-9-yl)oxy)-2-oxoethyl)thieno[3,2-b]thiophen-2-yl)acetic acid]", "values": [{"measurement": "concentrations of the resultant intermediate Compound 3i", "setting": "[2]; [3]", "result": "generally low to not measurable"}, {"measurement": "Compound 3i conc.", "setting": "[2]; resultant intermediate in plasma of individual rats (Rat 1-6) after single IM Compound 3, day 2", "result": "<0.2", "unit": "ng/mL"}, {"measurement": "Compound 3i conc.", "setting": "[2]; resultant intermediate in plasma of individual rats (Rat 1-6) after single IM Compound 3, day 4", "result": "<0.2", "unit": "ng/mL"}, {"measurement": "Compound 3i conc.", "setting": "[2]; resultant intermediate in plasma of individual rats (Rat 1-6) after single IM Compound 3, day 7", "result": "<0.2", "unit": "ng/mL"}, {"measurement": "Compound 3i conc.", "setting": "[2]; resultant intermediate in plasma of individual rats (Rat 1-6) after single IM Compound 3, day 10", "result": "<0.2", "unit": "ng/mL"}, {"measurement": "Compound 3i conc.", "setting": "[2]; resultant intermediate in plasma of individual rats (Rat 1-6) after single IM Compound 3, day 15", "result": "<0.2", "unit": "ng/mL"}, {"measurement": "Compound 3i conc.", "setting": "[2]; resultant intermediate in plasma of individual rats (Rat 1-6) after single IM Compound 3, day 22", "result": "<0.2", "unit": "ng/mL"}, {"measurement": "Compound 3i conc.", "setting": "[2]; resultant intermediate in plasma of individual rats (Rat 1-6) after single IM Compound 3, day 24", "result": "<0.2", "unit": "ng/mL"}, {"measurement": "Compound 3i conc.", "setting": "[2]; resultant intermediate in plasma of individual rats (Rat 1-6) after single IM Compound 3, day 28", "result": "<0.2", "unit": "ng/mL"}, {"measurement": "Compound 3i conc.", "setting": "[2]; resultant intermediate in plasma of individual rats (Rat 1-6) after single IM Compound 3, day 35", "result": "<0.2", "unit": "ng/mL"}, {"measurement": "Compound 3i conc.", "setting": "[2]; resultant intermediate in plasma of individual rats (Rat 1-6) after single IM Compound 3, day 42", "result": "<0.2 ng/mL (4×) and 0.805 ng/mL and 0.149 ng/mL"}]}]}
